In ChEMBL document CHEMBL6182903, “Synthetic approaches and clinical application of KRAS inhibitors for cancer therapy” (Eur J Med Chem, 2025) one finds DC50, IC50 and Ki data, which are given here for 4 molecules.

Molecules are shown by their SMILES. pIC50, pKi: −log10 of the molar value. Some results are limits rather than exact numbers.

The target in test [1] is von Hippel-Lindau disease tumor suppressor/GTPase KRas (Homo sapiens, UniProt P01116+P40337, G12C). Briefly: PROTAC activity at VHL/KRAS G12C mutant in human MIA PaCa-2 cells assessed as induction of KRAS G12C degradation. In kind it is cell-based.
Test [2] in a line: PROTAC activity at CRBN/KRAS G12C mutant in human MIA PaCa-2 cells assessed as induction of KRAS G12C degradation. The format is cell-based.
The target in test [3] is T1, GTPase KRas (Homo sapiens, UniProt P01116, G12S). Description: Inhibition of KRAS G12S mutant in human A549 cells assessed as reduction in ERK phosphorylation. The format is cell-based.
The target of test [4] is T1, GTPase KRas. Briefly: Binding affinity to human recombinant GDP-bound KRAS G12S mutant (1 to 169 residues) assessed as inhibition constant.
A further test concerns BaF3. Briefly: Cytotoxicity against mouse BaF3 cells harboring KRAS G12R mutant assessed as reduction in cells growth incubated for 72 hrs by Celltiter-Glo luminescence-based assay. The format is functional, cell-based. Conditions: BaF3, 72 h. Background: In ATP-based viability assays light output follows the ATP content of the culture.

Usually DC50 stands for the concentration at which degradation of the target reaches its halfway point. Consider `C=C(F)C(=O)N1CCN(c2nc(OC[C@@H]3CCCN3CCCOCCC(=O)N[C@H](C(=O)N3C[C@H](O)C[C@H]3C(=O)NCc3ccc(-c4scnc4C)cc3)C(C)(C)C)nc3c2CCN(c2cccc4cccc(Cl)c24)C3)C[C@@H]1CC#N`, for which the DC50 in test [1] was 0.12 µM.
Turning to `C=CC(=O)N1CCN(c2nc(NCCCN3CCN(CCCNc4cccc5c4C(=O)N(C4CCC(=O)NC4=O)C5=O)CC3)nc3c(F)c(-c4cc(O)cc5ccccc45)c(Cl)cc23)CC1` (stereo not given), in test [2], the DC50 was 3.2 µM.
Broadly, the pIC50 is the negative decadic logarithm of the IC50, by convention in mol/L. Usually pKi stands for the Ki on a negative log10 scale, so that one unit is a factor of ten. As for `O=C1O[C@H]2CN(c3nc(OCC45CCCN4CCC5)nc4c3CCN(c3cccc5cccc(Cl)c35)C4)CC[C@@H]12`, on GTPase KRas [3], the negative logarithm of the IC50 (pIC50) is 5.62. Also, the negative-log Ki (pKi) at GTPase KRas [4] is 4.59.
With `CC(=O)CC(=O)N1[C@@H]2CC[C@H]1CN(c1nc(OCC34CCCN3CCC4)nc3c(F)c(-c4cccc5cccc(Cl)c45)ncc13)C2`, in the test on BaF3, the negative-log IC50 (pIC50) was greater than 4.00.
